From US7235534B2, “Antisense strategy to modulate estrogen receptor response (ER α and/or ER β )” (Institut de Cardiologie de Montreal, priority 2001, dated 2007)

B1: PDGF-BB: platelet derived growth factor-BB, agonist in the lower Boyden chamber and MAPK stimulus (protein, UniProt P01127 82-190, looked up)
Platelet-derived growth …: SLGSLTIAEPAMIAECKTRTEVFEISRRLIDRTNANFLVWPPCVEVQRCSGCCNNRNVQCRPTQVQLRPVQVRKIEIVRKKPIFKKATVTLEDHLACKCETVAAARPVT

Tests used:
ERα [1] = assay: Western blot of ERα protein expression in PAEC; assay type: cell-based, porcine; details: oligomer 10^−6 mol/L, vs PBS-treated cells
Description: (§1) The efficiency and specificity of our antisense sequences to block the targeted protein expression were evaluated by Western blot analysis. Culture medium of confluent PAEC and PSMC (100-mm tissue culture plate) were rinsed with Dulbecco's modified eagle medium (DMEM; Life Technologies Inc., Carlsbad, Calif.) and trypsinized (trypsine-EDTA; Life Technologies). Cells were resuspended in DMEM containing 5% of fetal bovine serum and antibiotics (penicillin and streptomycin, Sigma, St-Louis, Mo.), and a cell count was obtained with a Coulter counter Z1 (Coulter Electronics, Luton, UK). Cells were seeded at 1×10^6 cells/100-mm tissue culture plate (Becton-Dickinson, Rutherford, N.J.), stimulated for 24 h in DMEM, 5% FBS, and antibiotics with or without antisense oligomers (10^−7, 5×10^−7, 10^−6 mol/L) and starved for 48 h in DMEM, 0.1% FBS, and antibiotics with or without antisense oligomers (10^−7, 5×10^−7, 10^−6 mol/L daily) for G0 synchronization. LipofectAnime (5 μg/ml, Life Technology Inc) was used as a transfection reagent only on PSMC. The cells were then grown to confluence for 16 h in DMEM, 5% FBS, and antibiotics with or without antisense oligomers (10^−7, 5×10^−7, 10^−6 mol/L) and starved for 7 h in DMEM, 0.1% FBS, and antibiotics with or without antisense oligomers (10^−7, 5×10^−7, 10^−6 mol/L) to induce an up-regulation of the ER expression. Culture medium was removed, and cells were rinsed twice with ice-cold DMEM. Total proteins were prepared by the addition of 500 μl of lysis buffer containing phenylmethylsulfonyl fluoride 1 mM (Sigma), leupeptin 10 μg/ml (Sigma), aprotinin 30 μg/mi (Sigma), and NaVO3 1 mM (Sigma). Plates were incubated at 4° C. for 30 min and scraped, and the protein concentration was determined with a Bio-Rad protein kit (Bio-Rad, Hercules, Calif.). Same protein quantity for each cell type were dissolved in Laemmli's buffer, boiled for 5 min in reducing conditions, separated by a 10% gradient SDS-PAGE (Protean II kit; Bio-Rad), and transblotted onto a 0.45-μm polyvinylidene difluoride membranes (Millipore Corp., Bedford, Mass.). […]

ERα [2] = assay: Western blot of ERα protein expression in PSMC; assay type: cell-based, porcine; details: oligomer 10^−6 mol/L, vs PBS-treated cells
Description: as §1

ERβ [3] = assay: Western blot of ERβ protein expression in PSMC; assay type: cell-based, porcine; details: oligomer 10^−6 mol/L, vs PBS-treated cells
Description: as §1

ERβ [4] = assay: Western blot of ERβ protein expression in PAEC; assay type: cell-based, porcine; details: oligomer 10^−6 mol/L, vs PBS-treated cells
Description: as §1

[5] = test system: Porcine aortic endothelial cells (PAEC); assay: Chemotactic assay on PAEC (modified Boyden chamber); assay type: cell-based; details: 5 hrs
Description: (§2) Cell migration was evaluated using a modified Boyden 48-well microchamber kit (NeuroProbe, Cabin John, MD.). Near confluent EC and PSMC were rinsed with DMEM and trypsinized. Cells were resuspended in DMEM, 5% FBS, and antibiotics, and a cell count was obtained. […] ER antagonists were added 5 minutes before 17βE. Cells were harvested by trypsinization and resuspended in DMEM, 1% FBS, and antibiotics at a concentration of 5×10^5 cells/ml. […] The two sections of the system were separated by a porous polycarbonate filter (5-μm pores), pre-treated with a gelatine solution (1.5 mg/ml), and assembled. Five hours post incubation at 37° C., the nonmigrated cells were scraped with a plastic policeman, and the migrated cells were stained using a Quick-Diff solution. The filter was then mounted on a glass slide, and migrated cells were counted using a microscope adapted to a video camera to obtain a computer-digitized image.
(§3) Cell migration was evaluated using a modified Boyden 48-well microchamber kit (NeuroProbe, Cabin John, MD.). Near confluent PAEC and PSMC were rinsed with DMEM and trypsinized. Cells were resuspended in DMEM, 5% FBS, and antibiotics, and a cell count was obtained. PAEC and PSMC were seeded at 2.5×10^5 cells/well of 6-well tissue culture plates; stimulated for 24 hours in DMEM, 5% FBS, and antibiotics with or without antisense oligomers (10^−6 mol/L) and starved for 48 hours in DMEM, 0.1% FBS, and antibiotics with or without antisense oligomers (10^−6 mol/L daily) with or without 17βE (10^−8 mol/L). Cells were harvested by trypsinization and resuspended in DMEM, 1% FBS, and antibiotics at a concentration of 5×10^5 cells/mL. Fifty μL of this cell suspension with or without antisense oligomers (10^−6 mol/L) treated with or without 17βE (10^−8 mol/L) was added in the higher-chamber of the modified Boyden chamber apparatus, and the lower chamber was filled with DMEM, 1% FBS, antibiotics plus the desired concentration of agonist either 17βE (10^−8 mol/L) or platelet-derived growth factor-BB (PDGF-BB). The 2 sections of the system were separated by a porous polycarbonate filter (5-μm pores size), pretreated with a gelatine solution (1.5 mg/mL), and assembled. Five hours postincubation at 37° C., the non-migrated cells were scraped with a plastic policeman, and the migrated cells were stained using a Quick-Diff solution (Shandon Inc). The filter was then mounted on a glass slide, and migrated cells were counted using a microscope adapted to a video camera to obtain a computer-digitized image.

[6] = test system: Porcine smooth muscle cells (PSMC); assay: Chemotactic assay on PSMC (modified Boyden chamber); assay type: cell-based; details: 5 hours
Description: as §2, §3

Molecule	inhibition of basal ERα protein expression (ERα [1])	inhibition of basal ERα protein expression (ERα [2])	inhibition of basal ERβ protein expression (ERβ [3])	inhibition of basal ERβ protein expression (ERβ [4])	also measured
AS2-ERα: antisense oligonucleotide, phosphothioate backbone, targeting porcine ERα mRNA: 5′-GAC GCT TTG GTG TGT AGG-3′ (antisense GACGCTTTGGTGTGTAGG; DNA, all phosphorothioate, methylation of C not given here)	95%	89%	–	–	–
AS1-ERβ: antisense oligonucleotide, phosphothioate backbone, targeting porcine ERβ mRNA: 5′-GTA GGA GAC AGG AGA GTT-3′ (antisense GTAGGAGACAGGAGAGTT; DNA, all phosphorothioate, methylation of C not given here)	–	–	84%	90%	–
AS2-ERβ: antisense oligonucleotide, phosphothioate backbone, targeting porcine ERβ mRNA: 5′-GCT AAA GGA GAG AGG TGT-3′ (antisense GCTAAAGGAGAGAGGTGT; DNA, all phosphorothioate, methylation of C not given here)	–	–	92%	97%	–
bFGF: basic fibroblast growth factor, chemotactic agonist for PAEC	–	–	–	–	induction of PAEC migration as compared to DMEM 1% ([5]; bFGF 1 ng/ml): 46%; induction of PAEC migration as compared to DMEM 1% ([5]; bFGF 5 ng/ml): 124%; induction of PAEC migration as compared to DMEM 1% ([5]; bFGF 10 ng/ml): 114%
AS1-ERα: antisense oligonucleotide, phosphothioate backbone, targeting porcine ERα mRNA: 5′-CTC GTT GGC TTG GAT CTG-3′ (antisense CTCGTTGGCTTGGATCTG; DNA, all phosphorothioate, methylation of C not given here)	94%	88%	–	–	–
SCR-ERβ: scrambled phosphothioate sequence, negative control: 5′-GAG TGG ACG TGA AGA AGT-3′ (GAGTGGACGTGAAGAAGT; DNA, all phosphorothioate, methylation of C not given here)	–	–	no suppressing effect	no suppressing effect	–
SCR-ERα: scrambled phosphothioate sequence, negative control: 5′-TGT AGC TCG GTT CTG TCG-3′ (TGTAGCTCGGTTCTGTCG; DNA, all phosphorothioate, methylation of C not given here)	no suppressing effect	no suppressing effect	–	–	–
B1	–	–	–	–	induction of PSMC migration as compared to DMEM 1% ([6]; PDGF-BB 1 ng/ml): 96%; induction of PSMC migration as compared to DMEM 1% ([6]; PDGF-BB 5 ng/ml): 137%; induction of PSMC migration as compared to DMEM 1% ([6]; PDGF-BB 10 ng/mL, Example 2): 199%; induction of PSMC migration as compared to DMEM 1% ([6]; PDGF-BB 10 ng/ml, Example 1): 202%
